Consider 13 molecules from patent US20080026996A1, “Selective Vpac2 Receptor Reptide Agonists” (ELI LILLY AND COMPANY, priority 2004, published 2008).

One may read the EC50 as the concentration that produces a half-maximal response.

Where a SMILES comes first, the peptide text is derived from it. Where no end group is shown, it is not given here. [ ]: non-standard residue; d: D form. The star is where a group is joined. Hexanoyl = CCCCCC(=O)*; Aib = CC(C)(N)C(=O)O

Series [1] in a line: Rat serum stability studies (remaining active peptide by DiscoveRx cAMP on CHO-VPAC2 cells). It counts as in vitro ADME. The method, then:
Store the aliquot with aprotinin at 4° C. Store the aliquot without aprotinin at 37° C. […] […] Incubate in room temperature for 30 minutes. Remove the supernatant. […] Incubate on the shaker (300 rpm) for 1 hour. Proceed as normal with the DiscoveRx kit. Include cAMP standards in column 12. Determine EC50 values from the cAMP assay data.

Series [2] deals with T1, human VPAC2 (Homo sapiens, UniProt P41587).
T1 construct: expressed in transfected cells
T1 sequence (P41587 24-438): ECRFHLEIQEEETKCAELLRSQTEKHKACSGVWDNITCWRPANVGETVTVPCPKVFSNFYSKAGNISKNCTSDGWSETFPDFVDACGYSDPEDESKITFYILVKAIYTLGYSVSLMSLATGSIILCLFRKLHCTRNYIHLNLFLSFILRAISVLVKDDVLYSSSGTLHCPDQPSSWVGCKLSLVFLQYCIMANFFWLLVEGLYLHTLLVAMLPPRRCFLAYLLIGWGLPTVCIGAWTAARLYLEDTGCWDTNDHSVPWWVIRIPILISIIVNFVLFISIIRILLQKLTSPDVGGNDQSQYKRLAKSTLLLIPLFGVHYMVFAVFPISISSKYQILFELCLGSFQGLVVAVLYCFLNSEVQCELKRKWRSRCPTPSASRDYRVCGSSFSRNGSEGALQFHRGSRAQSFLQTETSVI
Kind of series: Alpha screen cAMP in vitro potency, human VPAC2 receptor. It counts as cell-based. The conditions noted are these: cAMP generation; single result from two analyses performed in a single run; read-out: Human VPAC2 Receptor: Alpha Screen EC50. Summed up: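 This followed a 60 min stimulation of 50,000 enzyme-free-dissociated cells per point with acceptor beads in stimulation buffer.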

The target of series [3] is T1, human VPAC2. Kind of series: Filter binding assay, membranes of stable VPAC2 cell line, 125I-labeled VIP tracer (Table 2). The settings on record: read-out: Human VPAC2 Receptor Binding. Summed up:
(§1)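 Radioligand displacement was measured with 2.5 μg membrane protein per well and roughly 40000 cpm of iodinated tracer. After a 1-hour incubation, bound and free label were separated on BSA-blocked glass-fibre filters and quantified by scintillation.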

A further series concerns the target T2, human VPAC1 (Homo sapiens, UniProt P32241).
T2 sequence (P32241 31-457): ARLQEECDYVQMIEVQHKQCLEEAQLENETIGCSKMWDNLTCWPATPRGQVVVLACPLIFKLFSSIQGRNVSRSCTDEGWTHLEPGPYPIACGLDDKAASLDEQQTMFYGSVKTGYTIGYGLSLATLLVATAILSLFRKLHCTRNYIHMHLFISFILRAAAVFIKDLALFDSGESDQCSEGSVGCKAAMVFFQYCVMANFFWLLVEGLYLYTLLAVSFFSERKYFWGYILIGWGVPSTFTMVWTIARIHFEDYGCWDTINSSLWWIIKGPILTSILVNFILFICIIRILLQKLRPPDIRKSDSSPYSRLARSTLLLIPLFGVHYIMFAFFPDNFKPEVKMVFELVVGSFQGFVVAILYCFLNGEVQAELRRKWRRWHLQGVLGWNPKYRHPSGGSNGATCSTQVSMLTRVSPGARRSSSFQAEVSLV
Briefly: Filter binding assay, membranes of cells transiently transfected with human VPAC1, 125I-labeled VIP tracer (Table 2). Details: expressed in transfected cells. The conditions noted are these: read-out: Human VPAC1 Receptor Binding. Summed up:
as §1

The target in the next series is T3, human PAC1 (Homo sapiens, UniProt P41586).
T3 sequence (P41586 21-468): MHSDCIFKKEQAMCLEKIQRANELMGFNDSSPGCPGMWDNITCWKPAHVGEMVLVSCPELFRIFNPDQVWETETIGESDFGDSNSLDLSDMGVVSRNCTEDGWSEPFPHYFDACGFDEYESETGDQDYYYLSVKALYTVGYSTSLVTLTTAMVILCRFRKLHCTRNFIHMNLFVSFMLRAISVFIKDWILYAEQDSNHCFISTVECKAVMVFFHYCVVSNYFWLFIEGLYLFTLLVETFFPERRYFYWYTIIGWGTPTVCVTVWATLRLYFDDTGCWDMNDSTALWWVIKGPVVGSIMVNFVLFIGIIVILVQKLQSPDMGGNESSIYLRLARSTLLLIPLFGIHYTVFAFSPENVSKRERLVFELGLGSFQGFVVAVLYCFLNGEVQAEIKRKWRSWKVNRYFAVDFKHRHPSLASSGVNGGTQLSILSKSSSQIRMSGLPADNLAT
Kind of series: Filter binding assay, membranes of cells transiently transfected with human PAC1, 125I-labeled PACAP-27 tracer (Table 2). On the set-up: expressed in transfected cells. The settings on record: read-out: Human PAC1 Receptor Binding. Summed up: as §1

Turning to `CCCCCC(=O)N[C@@H](Cc1c[nH]cn1)C(=O)N[C@@H](CO)C(=O)N[C@@H](CC(=O)O)C(=O)N[C@@H](C)C(=O)N[C@H](C(=O)N[C@@H](Cc1ccccc1)C(=O)N[C@H](C(=O)N[C@@H](CC(=O)O)C(=O)N[C@@H](CC(N)=O)C(=O)N[C@@H](Cc1ccc(O)cc1)C(=O)N[C@H](C(=O)N[C@@H](CCCNC(=N)N)C(=O)N[C@@H](CC(C)C)C(=O)N[C@@H](CCCNC(=N)N)C(=O)NC(C)(C)C(=O)N[C@@H](CCC(N)=O)C(=O)N[C@H](C(=O)N[C@@H](C)C(=O)N[C@@H](C)C(=O)NC(C)(C)C(=O)N[C@@H](CCCCN)C(=O)N[C@@H](Cc1ccc(O)cc1)C(=O)N[C@@H](CC(C)C)C(=O)N[C@@H](CCC(N)=O)C(=O)N[C@@H](CO)C(=O)N[C@H](C(=O)N[C@@H](CCCCN)C(=O)NC(C)(C)C(=O)NCC(=O)NCC(=O)N1CCC[C@H]1C(=O)N[C@@H](CO)C(=O)N[C@@H](CO)C(=O)NCC(=O)N[C@@H](C)C(=O)N1CCC[C@H]1C(=O)N1CCC[C@H]1C(=O)N1CCC[C@H]1C(=O)N[C@@H](CO)C(=O)O)[C@@H](C)CC)C(C)C)[C@@H](C)O)[C@@H](C)O)C(C)C` [Agonist P355], the “Rat Serum Stability (estimated purity in % after 18 hours)” value in series [1] is given as 35.94%. In addition, on human VPAC2 [2], the EC50 was 0.1 nM.
“Hexanoyl-HSDAVFTDNYTRL[Aib]KQVAAKQYLQSIKNKRYGGPSSGAPPPS [Agonist P249]”: the “Rat Serum Stability (estimated purity in % after 18 hours)” value in series [1] is listed as 12.9%.
“Hexanoyl-HSDA[dV]FTDNYTRLRKQVAAKKYLQSIKNKRYGGPSSGAPPPS [Agonist P210]”: the “Rat Serum Stability (estimated purity in % after 18 hours)” value in series [1] is given as less than 0.91%. Moreover, the results for the IC50 on human VPAC2 [3] and at human VPAC1 were 0.68 nM and 395 nM, respectively.
In the case of “Hexanoyl-HSDAVFTDNYT[Aib]LR[Aib]QVAA[Aib]KYLQSIKNKRYGGPSSGAPPPS [Agonist P345]”, in series [1], the “Rat Serum Stability (estimated purity in % after 18 hours)” value is listed as 20.23%. Besides, the IC50 at human VPAC2 [3] was 19.3 nM; on human VPAC1, more than 3000 nM.
“Hexanoyl-HSDLVFTDNYTRLRKQVAAKKYLQSIKNKRYGGPSSGAPPPS [Agonist P223]”: the “Rat Serum Stability (estimated purity in % after 18 hours)” value in series [1] was 1.52%.
Consider “Hexanoyl-HSDAVFTDNYTRLRKQVAAKK[Aib]LQSIKNKRYGGPSSGAPPPS [Agonist P228]”, for which the “Rat Serum Stability (estimated purity in % after 18 hours)” value in series [1] is on record as less than 5.00%.
“Hexanoyl-HSDAVFTDNYTRLLAKLALQKYLQSIKNKRYGGPSSGAPPPC [Agonist P164]”: the EC50 on human VPAC2 [2] amounted to 0.11 nM. Besides, the IC50 was 9370 nM on human PAC1, 2.46 nM on human VPAC2 [3] and more than 3000 nM at human VPAC1.
Turning to “Hexanoyl-HSDAVFTDNYTRLRKQVAAKKYLQNIKNKRYGGPSSGAPPPS [Agonist P125]”, the EC50 on human VPAC2 [2] came out at 0.14 nM. Also, the IC50 is 300 nM at human PAC1, 0.19 nM at human VPAC2 [3] and 179 nM on human VPAC1.
The corresponding values for `CCCCCC(=O)N[C@@H](Cc1c[nH]cn1)C(=O)N[C@@H](CO)C(=O)N[C@@H](CC(=O)O)C(=O)N[C@@H](C)C(=O)N[C@H](C(=O)N[C@@H](Cc1ccccc1)C(=O)N[C@H](C(=O)N[C@@H](CC(=O)O)C(=O)N[C@@H](CC(N)=O)C(=O)N[C@@H](Cc1ccc(O)cc1)C(=O)N[C@H](C(=O)N[C@@H](CCCNC(=N)N)C(=O)N[C@@H](CC(C)C)C(=O)N[C@@H](CCCNC(=N)N)C(=O)N[C@@H](CCCCN)C(=O)N[C@@H](CCC(N)=O)C(=O)N[C@H](C(=O)N[C@@H](C)C(=O)N[C@@H](C)C(=O)N[C@@H](CCCCN)C(=O)N[C@@H](CCCCN)C(=O)N[C@@H](Cc1ccc(O)cc1)C(=O)N[C@@H](CC(C)C)C(=O)N[C@@H](CCC(N)=O)C(=O)N[C@@H](CO)C(=O)N[C@H](C(=O)N[C@@H](CCCCN)C(=O)N[C@@H](CC(N)=O)C(=O)NCC(=O)N[C@@H](CCCNC(=N)N)C(=O)N1CCC[C@H]1C(=O)N[C@@H](CO)C(=O)N[C@@H](CO)C(=O)NCC(=O)N[C@@H](C)C(=O)N1CCC[C@H]1C(=O)N1CCC[C@H]1C(=O)N1CCC[C@H]1C(=O)N[C@@H](CO)C(=O)O)[C@@H](C)CC)C(C)C)[C@@H](C)O)[C@@H](C)O)C(C)C` [Agonist P271] (Hexanoyl-HSDAVFTDNYTRLRKQVAAKKYLQSIKNGRPSSGAPPPS-OH; C-terminus assumed) are 0.12 nM, 352 nM, 0.14 nM and 67.6 nM.
The corresponding values for “Hexanoyl-HSDAVFTDNYTRLLAKVALQKYLQSIKNKRYGGPSSGAPPPS [Agonist P196]” are 0.23 nM, more than 25000 nM, 0.85 nM and 453 nM.
For “Hexanoyl-HSDAVFTDNYTRLRKQVAAKKYLQSIKNSRGGPSSGAPPPS [Agonist P122]”, the EC50 on human VPAC2 [2] came out at 0.14 nM. In addition, the values for the IC50 on human PAC1, at human VPAC2 [3] and on human VPAC1 were 304 nM, 0.17 nM and 77.6 nM, respectively.
With “Hexanoyl-HSDIVFTDNYTRLRKQVAAKKYLQSIKNKRYGGPSSGAPPPS [Agonist P221]”, the “Rat Serum Stability (estimated purity in % after 18 hours)” value in series [1] was 0.87%.
Still for that read-out and setting: the figure for `CCCCCC(=O)N[C@@H](Cc1c[nH]cn1)C(=O)N[C@@H](CO)C(=O)N[C@@H](CC(=O)O)C(=O)N[C@@H](C)C(=O)N[C@H](C(=O)N[C@@H](Cc1ccccc1)C(=O)N[C@H](C(=O)N[C@@H](CC(=O)O)C(=O)N[C@@H](CC(N)=O)C(=O)N[C@@H](Cc1ccc(O)cc1)C(=O)N[C@H](C(=O)N[C@@H](CCCNC(=N)N)C(=O)N[C@@H](CC(C)C)C(=O)N[C@@H](CCCNC(=N)N)C(=O)NC(C)(C)C(=O)N[C@@H](CCC(N)=O)C(=O)N[C@H](C(=O)N[C@@H](C)C(=O)N[C@@H](C)C(=O)NC(C)(C)C(=O)N[C@@H](CCCCN)C(=O)N[C@@H](Cc1ccc(O)cc1)C(=O)N[C@@H](CC(C)C)C(=O)N[C@@H](CCC(N)=O)C(=O)N[C@@H](CO)C(=O)N[C@H](C(=O)N[C@@H](CCCN)C(=O)N[C@@H](CCC(N)=O)C(=O)N[C@@H](CCCN)C(=O)NCC(=O)NCC(=O)N1CCC[C@H]1C(=O)N[C@@H](CO)C(=O)N[C@@H](CO)C(=O)NCC(=O)N[C@@H](C)C(=O)N1CCC[C@H]1C(=O)N1CCC[C@H]1C(=O)N1CCC[C@H]1C(=O)N[C@@H](CO)C(=O)O)[C@@H](C)CC)C(C)C)[C@@H](C)O)[C@@H](C)O)C(C)C` [Agonist P356] is 45.17%.
